Data published in US20100168102A9, “Amide Derivatives as Kinase Inhibitors” (Devgen NV, priority 2005, published 2010).

How the values were obtained:
PKC epsilon = biological target: T1, PKC epsilon (Homo sapiens, UniProt Q02156); experiment: Biochemical assay for PKC epsilon (fluorescence polarization, Protein Kinase C Assay Kit, Red); details: Table 2, compounds of Formula XIII; read-out: IC50 μM PKCε
T1 construct: purchased Invitrogen P2282
T1 sequence (Q02156 1-737): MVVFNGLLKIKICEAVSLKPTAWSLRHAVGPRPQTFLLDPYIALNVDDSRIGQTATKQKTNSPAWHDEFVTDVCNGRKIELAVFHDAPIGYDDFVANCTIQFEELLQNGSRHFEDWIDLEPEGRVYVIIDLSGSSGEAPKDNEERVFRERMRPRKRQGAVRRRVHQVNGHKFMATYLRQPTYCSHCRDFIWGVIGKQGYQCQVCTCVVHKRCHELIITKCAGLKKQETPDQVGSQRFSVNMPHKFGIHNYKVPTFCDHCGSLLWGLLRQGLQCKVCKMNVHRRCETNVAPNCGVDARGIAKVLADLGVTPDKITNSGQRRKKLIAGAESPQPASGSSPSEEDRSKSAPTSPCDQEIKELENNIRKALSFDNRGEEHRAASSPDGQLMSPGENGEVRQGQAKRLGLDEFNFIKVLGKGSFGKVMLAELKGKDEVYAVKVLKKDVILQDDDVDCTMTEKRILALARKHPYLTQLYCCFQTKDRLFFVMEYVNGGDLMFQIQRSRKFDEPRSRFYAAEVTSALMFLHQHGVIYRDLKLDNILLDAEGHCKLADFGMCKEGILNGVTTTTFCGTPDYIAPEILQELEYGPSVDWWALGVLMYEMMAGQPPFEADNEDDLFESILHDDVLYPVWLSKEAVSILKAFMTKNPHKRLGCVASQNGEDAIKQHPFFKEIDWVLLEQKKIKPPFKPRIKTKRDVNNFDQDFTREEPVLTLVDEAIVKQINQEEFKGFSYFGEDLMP
Method in brief: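 Read-out was fluorescence-polarization competition between phosphorylated substrate and a rhodamine PKC tracer for an anti-phosphoserine antibody, added with EDTA stop after an 80 min room-temperature kinase reaction with ATP and protein substrate (Mg2+/Ca2+ buffer). Enzyme (10 ng/ml final) was preincubated with compound for 30 min.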

human ROCKα/ROCKII mix = biological target: T2, human ROCKα/ROCKII mix (Homo sapiens, UniProt O75116); experiment: Biochemical assay for ROCK (fluorescence polarization, ROCK IMAP Kit); details: Table 2, compounds of Formula XIII
T2 construct: purchased Upstate Biotechnology 14-451
T2 sequence (O75116 11-552 limits assumed): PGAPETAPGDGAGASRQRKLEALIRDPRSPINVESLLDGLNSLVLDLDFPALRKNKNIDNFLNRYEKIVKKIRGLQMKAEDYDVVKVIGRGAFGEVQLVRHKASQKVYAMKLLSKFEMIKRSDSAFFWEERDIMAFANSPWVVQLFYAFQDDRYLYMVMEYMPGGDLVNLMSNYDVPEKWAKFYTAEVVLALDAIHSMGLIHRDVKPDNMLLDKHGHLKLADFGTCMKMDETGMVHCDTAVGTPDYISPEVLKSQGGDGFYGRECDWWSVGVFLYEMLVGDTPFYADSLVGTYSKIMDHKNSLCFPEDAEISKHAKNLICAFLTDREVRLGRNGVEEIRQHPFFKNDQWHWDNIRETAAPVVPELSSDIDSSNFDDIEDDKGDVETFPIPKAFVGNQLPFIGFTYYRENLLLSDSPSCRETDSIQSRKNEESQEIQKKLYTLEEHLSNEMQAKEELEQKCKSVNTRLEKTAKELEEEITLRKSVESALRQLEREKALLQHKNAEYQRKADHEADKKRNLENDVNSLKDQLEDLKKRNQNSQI

## CCCCC(=O)NCC(N)c1ccc(C(=O)Nc2ccncc2)cc1 (stereo not shown) [Compound 33, 4-(1-Amino-2-pentanoylamino-ethyl)-N-pyridin-4-yl-benzamide]
PKC epsilon
  IC50: 0.5 to 5 µM
Human ROCKα/ROCKII mix
  IC50: 0.5 to 5 µM

## CC(C)CC(=O)NCC(N)c1ccc(C(=O)Nc2ccncc2)cc1 (stereo not shown) [Compound 34, 4-[1-Amino-2-(3-methyl-butyrylamino)-ethyl]-N-pyridin-4-yl-benzamide]
PKC epsilon
  IC50: 0.5 to 5 µM
Human ROCKα/ROCKII mix
  IC50: 0.5 to 5 µM

## CCC(C)C(=O)NCC(N)c1ccc(C(=O)Nc2ccncc2)cc1 (stereo not shown) [Compound 35, 4-[1-Amino-2-(2-methyl-butyrylamino)-ethyl]-N-pyridin-4-yl-benzamide]
PKC epsilon
  IC50: 0.5 to 5 µM
Human ROCKα/ROCKII mix
  IC50: 0.5 to 5 µM

## CC(C)CCC(=O)NCC(N)c1ccc(C(=O)Nc2ccncc2)cc1 (stereo not shown) [Compound 36, 4-[1-Amino-2-(4-methyl-pentanoylamino)-ethyl]-N-pyridin-4-yl-benzamide]
PKC epsilon
  IC50: 0.5 to 5 µM
Human ROCKα/ROCKII mix
  IC50: 0.5 to 5 µM

## NC(CNC(=O)C1CC1)c1ccc(C(=O)Nc2ccncc2)cc1 (stereo not shown) [Compound 39, 4-[1-Amino-2-(cyclopropanecarbonyl-amino)-ethyl]-N-pyridin-4-yl-benzamide]
PKC epsilon
  IC50: 0.5 to 5 µM
Human ROCKα/ROCKII mix
  IC50: 0.5 to 5 µM

## CC1CC1C(=O)NCC(N)c1ccc(C(=O)Nc2ccncc2)cc1 (stereo not shown) [Compound 40, 4-{1-Amino-2-[(2-methyl-cyclopropanecarbonyl)-amino]-ethyl}-N-pyridin-4-yl-benzamide]
PKC epsilon
  IC50: 0.5 to 5 µM
Human ROCKα/ROCKII mix
  IC50: 0.5 to 5 µM

## NC(CNC(=O)C1CCC1)c1ccc(C(=O)Nc2ccncc2)cc1 (stereo not shown) [Compound 41, 4-[1-Amino-2-(cyclobutanecarbonyl-amino)-ethyl]-N-pyridin-4-yl-benzamide]
PKC epsilon
  IC50: 0.5 to 5 µM
Human ROCKα/ROCKII mix
  IC50: 0.5 to 5 µM

## NC(CNC(=O)C1CCCC1)c1ccc(C(=O)Nc2ccncc2)cc1 (stereo not shown) [Compound 42, 4-[1-Amino-2-(cyclopentanecarbonyl-amino)-ethyl]-N-pyridin-4-yl-benzamide]
PKC epsilon
  IC50: 0.5 to 5 µM
Human ROCKα/ROCKII mix
  IC50: 0.5 to 5 µM

## NC(CNC(=O)C1CCCCC1)c1ccc(C(=O)Nc2ccncc2)cc1 (stereo not shown) [Compound 43, 4-[1-Amino-2-(cyclohexanecarbonyl-amino)-ethyl]-N-pyridin-4-yl-benzamide]
PKC epsilon
  IC50: 5 to 50 µM
Human ROCKα/ROCKII mix
  IC50: 0.5 to 5 µM

## NC(CNC(=O)CC1CC1)c1ccc(C(=O)Nc2ccncc2)cc1 (stereo not shown) [Compound 46, 4-[1-Amino-2-(2-cycopropyl-acetylamino)-ethyl]-N-pyridin-4-yl-benzamide]
PKC epsilon
  IC50: 0.5 to 5 µM
Human ROCKα/ROCKII mix
  IC50: 0.5 to 5 µM

## NC(CNC(=O)CC1CCCC1)c1ccc(C(=O)Nc2ccncc2)cc1 (stereo not shown) [Compound 47, 4-[1-Amino-2-(2-cyclopentyl-acetylamino)-ethyl]-N-pyridin-4-yl-benzamide]
PKC epsilon
  IC50: 0.5 to 5 µM
Human ROCKα/ROCKII mix
  IC50: 0.5 to 5 µM

## NC(CNC(=O)CC1C=CCC1)c1ccc(C(=O)Nc2ccncc2)cc1 (stereo not shown) [Compound 48, 4-[1-Amino-2-(2-cyclopent-2-enyl-acetylamino)-ethyl]-N-pyridin-4-yl-benzamide]
PKC epsilon
  IC50: 0.5 to 5 µM
Human ROCKα/ROCKII mix
  IC50: 0.05 to 0.5 µM

## NC(CNC(=O)CC1Cc2ccccc2C1)c1ccc(C(=O)Nc2ccncc2)cc1 (stereo not shown) [Compound 49, 4-[1-Amino-2-(2-indan-2-yl-acetylamino)-ethyl]-N-pyridin-4-yl-benzamide]
PKC epsilon
  IC50: 0.5 to 5 µM
Human ROCKα/ROCKII mix
  IC50: 0.05 to 0.5 µM

## NC(CNC(=O)CC1CCCCC1)c1ccc(C(=O)Nc2ccncc2)cc1 (stereo not shown) [Compound 50, 4-[1-Amino-2-(2-cyclohexyl-acetylamino)-ethyl]-N-pyridin-4-yl-benzamide]
PKC epsilon
  IC50: 0.5 to 5 µM
Human ROCKα/ROCKII mix
  IC50: 0.5 to 5 µM

## NC(CNC(=O)CCC1CCCC1)c1ccc(C(=O)Nc2ccncc2)cc1 (stereo not shown) [Compound 51, 4-[1-Amino-2-(3-cyclopentyl-propionylamino)-ethyl]-N-pyridin-4-yl-benzamide]
PKC epsilon
  IC50: 0.5 to 5 µM
Human ROCKα/ROCKII mix
  IC50: 0.05 to 0.5 µM

## NC(CNC(=O)CCC1CCCCC1)c1ccc(C(=O)Nc2ccncc2)cc1 (stereo not shown) [Compound 52, 4-[1-Amino-2-(3-cyclohexyl-propionylamino)-ethyl]-N-pyridin-4-yl-benzamide]
PKC epsilon
  IC50: 0.5 to 5 µM
Human ROCKα/ROCKII mix
  IC50: 0.05 to 0.5 µM

## CN(C)CCCC(=O)NCC(N)c1ccc(C(=O)Nc2ccncc2)cc1 (stereo not shown) [Compound 53, 4-[1-Amino-2-(4-dimethylamino-butyrylamino)-ethyl]-N-pyridin-4-yl-benzamide]
PKC epsilon
  IC50: 5 to 50 µM
Human ROCKα/ROCKII mix
  IC50: 0.5 to 5 µM

## N#CCC(=O)NCC(N)c1ccc(C(=O)Nc2ccncc2)cc1 (stereo not shown) [Compound 54, 4-[1-Amino-2-(2-cyano-acetylamino)-ethyl]-N-pyridin-4-yl-benzamide]
PKC epsilon
  IC50: 0.5 to 5 µM
Human ROCKα/ROCKII mix
  IC50: 0.05 to 0.5 µM

## NC(CNC(=O)CNC(=O)c1ccccc1)c1ccc(C(=O)Nc2ccncc2)cc1 (stereo not shown) [Compound 55, 4-[1-Amino-2-(2-benzoylamino-acetylamino)-ethyl]-N-pyridin-4-yl-benzamide]
PKC epsilon
  IC50: 5 to 50 µM
Human ROCKα/ROCKII mix
  IC50: 0.05 to 0.5 µM

## NC(CNC(=O)CNC(=O)c1ccco1)c1ccc(C(=O)Nc2ccncc2)cc1 (stereo not shown) [Compound 56, Furan-2-carboxylic acid ({2-amino-2-[4-(pyridin-4-ylcarbamoyl)-phenyl]-ethylcarbamoyl}-methyl)-amide]
PKC epsilon
  IC50: 5 to 50 µM
Human ROCKα/ROCKII mix
  IC50: 0.05 to 0.5 µM

## COCC(=O)NCC(N)c1ccc(C(=O)Nc2ccncc2)cc1 (stereo not shown) [Compound 57, 4-[1-Amino-2-(2-methoxy-acetylamino)-ethyl]-N-pyridin-4-yl-benzamide]
PKC epsilon
  IC50: 5 to 50 µM
Human ROCKα/ROCKII mix
  IC50: 0.5 to 5 µM

## COCCC(=O)NCC(N)c1ccc(C(=O)Nc2ccncc2)cc1 (stereo not shown) [Compound 58, 4-[1-Amino-2-(3-methoxy-propionylamino)-ethyl]-N-pyridin-4-yl-benzamide]
PKC epsilon
  IC50: 5 to 50 µM
Human ROCKα/ROCKII mix
  IC50: 0.5 to 5 µM

## CC(C)=NOC(C)C(=O)NCC(N)c1ccc(C(=O)Nc2ccncc2)cc1 (stereo not shown) [Compound 59, 4-[1-Amino-2-(2-isopropylideneaminooxy-propionylamino)-ethyl]-N-pyridin-4-yl-benzamide]
PKC epsilon
  IC50: 0.5 to 5 µM
Human ROCKα/ROCKII mix
  IC50: 0.5 to 5 µM

## CC(=NOCC(=O)NCC(N)c1ccc(C(=O)Nc2ccncc2)cc1)c1ccccc1 (stereo not shown) [Compound 60, 4-{1-Amino-2-[2-(1-phenyl-ethylideneaminooxy)-acetylamino]-ethyl}-N-pyridin-4-yl-benzamide]
PKC epsilon
  IC50: 0.5 to 5 µM
Human ROCKα/ROCKII mix
  IC50: 0.05 to 0.5 µM

## Cc1ccsc1C=NOCC(=O)NCC(N)c1ccc(C(=O)Nc2ccncc2)cc1 (stereo not shown) [Compound 61, 4-{1-Amino-2-[2-(3-methyl-thiophen-2-ylmethyleneaminooxy)-acetylamino]-ethyl}-N-pyridin-4-yl-benzamide]
PKC epsilon
  IC50: 5 to 50 µM
Human ROCKα/ROCKII mix
  IC50: 0.5 to 5 µM

## CCOCC(=O)NCC(N)c1ccc(C(=O)Nc2ccncc2)cc1 (stereo not shown) [Compound 62, 4-[1-amino-2-(2-ethoxy-acetylamino)-ethyl]-N-pyridin-4-yl-benzamide]
PKC epsilon
  IC50: 5 to 50 µM
Human ROCKα/ROCKII mix
  IC50: 0.5 to 5 µM

## CCSCC(=O)NCC(N)c1ccc(C(=O)Nc2ccncc2)cc1 (stereo not shown) [Compound 63, 4-[1-amino-2-(2-ethylsulfanyl-acetylamino)-ethyl]-N-pyridin-4-yl-benzamide]
PKC epsilon
  IC50: 0.5 to 5 µM
Human ROCKα/ROCKII mix
  IC50: 0.05 to 0.5 µM

## NC(CNC(=O)CSc1ncccn1)c1ccc(C(=O)Nc2ccncc2)cc1 (stereo not shown) [Compound 64, 4-{1-amino-2-[2-(pyrimidin-2-ylsulfanyl)-acetylamino]-ethyl}-N-pyridin-4-yl-benzamide]
PKC epsilon
  IC50: 5 to 50 µM
Human ROCKα/ROCKII mix
  IC50: 0.5 to 5 µM

## NC(CNC(=O)C1CCOC1)c1ccc(C(=O)Nc2ccncc2)cc1 (stereo not shown) [Compound 65, Tetrahydro-furan-3-carboxylic acid {2-amino-2-[4-(pyridin-4-ylcarbamoyl)-phenyl]-ethyl}-amide]
PKC epsilon
  IC50: 0.5 to 5 µM
Human ROCKα/ROCKII mix
  IC50: 0.5 to 5 µM

## NC(CNC(=O)C1CCCO1)c1ccc(C(=O)Nc2ccncc2)cc1 (stereo not shown) [Compound 66, Tetrahydro-furan-2-carboxylic acid {2-amino-2-[4-(pyridin-4-ylcarbamoyl)-phenyl]-ethyl}-amide]
PKC epsilon
  IC50: 5 to 50 µM
Human ROCKα/ROCKII mix
  IC50: 0.5 to 5 µM

## NC(CNC(=O)[C@@H]1CCC(=O)N1)c1ccc(C(=O)Nc2ccncc2)cc1 (stereo partly drawn) [Compound 67, 5-Oxo-pyrrolidine-2-(S)-carboxylic acid {2-amino-2-[4-(pyridin-4-ylcarbamoyl)-phenyl]-ethyl}-amide]
PKC epsilon
  IC50: 5 to 50 µM
Human ROCKα/ROCKII mix
  IC50: 0.5 to 5 µM

## NC(CNC(=O)[C@H]1CCC(=O)N1)c1ccc(C(=O)Nc2ccncc2)cc1 (stereo partly drawn) [Compound 68, 5-Oxo-pyrrolidine-2-(R)-carboxylic acid {2-amino-2-[4-(pyridin-4-ylcarbamoyl)-phenyl]-ethyl}-amide]
PKC epsilon
  IC50: 5 to 50 µM
Human ROCKα/ROCKII mix
  IC50: 0.05 to 0.5 µM

## NC(CNC(=O)c1ccc2ccccc2c1)c1ccc(C(=O)Nc2ccncc2)cc1 (stereo not shown) [Compound 70]
PKC epsilon
  IC50: 5 to 50 µM
Human ROCKα/ROCKII mix
  IC50: 0.05 to 0.5 µM

## NC(CNC(=O)c1cccc2ccccc12)c1ccc(C(=O)Nc2ccncc2)cc1 (stereo not shown) [Compound 71]
PKC epsilon
  IC50: 0.5 to 5 µM
Human ROCKα/ROCKII mix
  IC50: 0.5 to 5 µM

## COc1ccccc1C(=O)NCC(N)c1ccc(C(=O)Nc2ccncc2)cc1 (stereo not shown) [Compound 72, 4-[1-amino-2-(2-methoxy-benzoylamino)-ethyl]-N-pyridin-4-yl-benzamide]
PKC epsilon
  IC50: 0.5 to 5 µM
Human ROCKα/ROCKII mix
  IC50: 0.5 to 5 µM
